Results on 37 compounds are retold here after ChEMBL document CHEMBL2203185, “Development of sub-nanomolar dipeptidic ligands of neuropeptide FF receptors” (Bioorg Med Chem Lett, 2012).

Format in all cases: cell-based
Experiment [1] concerns the target T1, Neuropeptide FF receptor 2 (Homo sapiens, UniProt Q9Y5X5). Put plainly: Displacement of [3H]FFRF-NH2 from human flag-tagged NPFF2 receptor expressed in CHO cells at 5 uM by scintillation counting.
In experiment [2] the target is T1, Neuropeptide FF receptor 2. Put plainly: Displacement of [3H]FFRF-NH2 from human flag-tagged NPFF2 receptor expressed in CHO cells at 500 nM by scintillation counting.
Experiment [3] has as its target T2, Neuropeptide FF receptor 1 (Homo sapiens, UniProt Q9GZQ6). Put plainly: Displacement of [3H]FFRF-NH2 from human flag-tagged NPFF1 receptor expressed in CHO cells at 5 uM by scintillation counting.
The target of experiment [4] is T2, Neuropeptide FF receptor 1. Put plainly: Displacement of [3H]FFRF-NH2 from human flag-tagged NPFF1 receptor expressed in CHO cells at 500 nM by scintillation counting.

Non-standard residues stand in square brackets, D forms with d. Residues, ends and D or L forms follow the SMILES beside them. Inp = O=C(O)C1CCNCC1

T1 sequence (Q9Y5X5 whole entry): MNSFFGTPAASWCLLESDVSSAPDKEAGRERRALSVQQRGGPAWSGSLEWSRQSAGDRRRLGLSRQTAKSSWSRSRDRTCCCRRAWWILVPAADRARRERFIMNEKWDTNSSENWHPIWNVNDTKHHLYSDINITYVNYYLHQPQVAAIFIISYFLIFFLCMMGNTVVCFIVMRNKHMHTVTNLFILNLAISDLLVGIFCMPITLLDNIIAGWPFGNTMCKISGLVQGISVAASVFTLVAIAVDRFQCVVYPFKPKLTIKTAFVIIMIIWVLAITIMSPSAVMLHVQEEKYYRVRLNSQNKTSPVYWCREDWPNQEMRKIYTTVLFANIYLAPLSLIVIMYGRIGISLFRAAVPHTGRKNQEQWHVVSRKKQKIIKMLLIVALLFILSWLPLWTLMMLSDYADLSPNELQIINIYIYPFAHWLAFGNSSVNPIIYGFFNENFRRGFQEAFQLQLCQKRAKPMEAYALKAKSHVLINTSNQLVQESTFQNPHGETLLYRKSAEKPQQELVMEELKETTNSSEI
T2 sequence (Q9GZQ6 whole entry): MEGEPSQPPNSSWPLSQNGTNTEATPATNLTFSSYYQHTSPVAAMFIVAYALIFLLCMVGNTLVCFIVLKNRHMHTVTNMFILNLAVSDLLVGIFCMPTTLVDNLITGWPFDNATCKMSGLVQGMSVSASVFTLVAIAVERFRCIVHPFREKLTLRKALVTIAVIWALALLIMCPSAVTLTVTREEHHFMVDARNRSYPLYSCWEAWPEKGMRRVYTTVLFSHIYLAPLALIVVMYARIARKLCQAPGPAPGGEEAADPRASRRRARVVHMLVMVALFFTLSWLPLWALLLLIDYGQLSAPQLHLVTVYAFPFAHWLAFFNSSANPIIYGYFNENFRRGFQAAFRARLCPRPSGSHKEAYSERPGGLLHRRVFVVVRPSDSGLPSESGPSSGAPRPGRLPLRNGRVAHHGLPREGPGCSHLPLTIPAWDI

Consider `N=C(N)NCCC[C@H](NC(=O)C1CCNCC1)C(=O)N[C@@H](Cc1ccccc1)C(N)=O` (H-[Inp]-Arg-Phe-NH2), for which the inhibition amounted to 59% in experiment [1], 19% in experiment [2], 100% in experiment [3] and 26% in experiment [4].

With `N=C(N)NCCC[C@H](NC(=O)CC(c1ccccc1)c1ccccc1)C(=O)N[C@@H](Cc1ccccc1)C(N)=O`, the inhibition in experiment [1] is 40%; in experiment [2], 16%; in experiment [3] it was 89%; in experiment [4] it was 37%.

On to `N=C(N)NCCC[C@H](NC(=O)CCC(=O)O)C(=O)N[C@@H](Cc1ccccc1)C(N)=O`, for which the inhibition in experiment [1] is 20%; in experiment [2], 0%; in experiment [3], 34%; in experiment [4], 29%.

Regarding `N=C(N)NCCC[C@H](NC(=O)c1ccc(O)c(O)c1)C(=O)N[C@@H](Cc1ccccc1)C(N)=O`, the inhibition in experiment [1] came out at 28%; in experiment [2], 0%; in experiment [3] it was 56%; in experiment [4], 18%.

On to `N=C(N)NCCC[C@H](NC(=O)c1cccc(Cl)c1)C(=O)N[C@@H](Cc1ccccc1)C(N)=O`, for which the inhibition was 20% in experiment [1], 0% in experiment [2], 84% in experiment [3] and 56% in experiment [4].

For the compound `CCCCCC(=O)N[C@@H](CCCNC(=N)N)C(=O)N[C@@H](Cc1ccccc1)C(N)=O`, the inhibition in experiment [1] was 53%; in experiment [2] it was 30%; in experiment [3], 95%; in experiment [4] it was 45%.

Regarding `N=C(N)NCCC[C@H](NC(=O)c1nc2ccccc2[nH]1)C(=O)N[C@@H](Cc1ccccc1)C(N)=O`, the inhibition in experiment [1] was 49%; in experiment [2], 12%; in experiment [3], 98%; in experiment [4], 35%.

For the compound `N=C(N)NCCC[C@H](NC(=O)c1ccc(Cl)c(Cl)c1)C(=O)N[C@@H](Cc1ccccc1)C(N)=O`, the inhibition was determined as 67% in experiment [1], 12% in experiment [2], 77% in experiment [3] and 25% in experiment [4].

Regarding `N=C(N)NCCC[C@H](NC(=O)/C=C/c1cccnc1)C(=O)N[C@@H](Cc1ccccc1)C(N)=O`, the inhibition in experiment [1] was 27%; in experiment [2], 6%; in experiment [3] it was 41%; in experiment [4], 3%.

Turning to `N=C(N)NCCC[C@H](NC(=O)c1ccc(Cl)cc1)C(=O)N[C@@H](Cc1ccccc1)C(N)=O`, the inhibition in experiment [1] stood at 7%; in experiment [2] it was 3%; in experiment [3], 59%; in experiment [4] it was 37%.

On to `N=C(N)NCCC[C@H](NC(=O)c1cccc(C(=O)c2ccccc2)c1)C(=O)N[C@@H](Cc1ccccc1)C(N)=O`, for which the inhibition in experiment [1] turned out to be 40%; in experiment [2] it was 0%; in experiment [3] it was 78%; in experiment [4], 15%.

With `COc1ccc(CC(=O)N[C@@H](CCCNC(=N)N)C(=O)N[C@@H](Cc2ccccc2)C(N)=O)cc1OC`, the inhibition stood at 28% in experiment [1], 0% in experiment [2], 70% in experiment [3] and 8% in experiment [4].

On to `N=C(N)NCCC[C@H](NC(=O)c1c(Cl)cccc1Cl)C(=O)N[C@@H](Cc1ccccc1)C(N)=O`, for which the inhibition was found to be 11% in experiment [1], 0% in experiment [2], 85% in experiment [3] and 30% in experiment [4].

Consider `N=C(N)NCCC[C@H](NC(=O)Cc1ccc(Cl)cc1)C(=O)N[C@@H](Cc1ccccc1)C(N)=O`, for which the inhibition in experiment [1] was 63%; in experiment [2] it was 9%; in experiment [3] it was 100%; in experiment [4] it was 62%.

Consider `N=C(N)NCCC[C@H](NC(=O)c1cccc2ccccc12)C(=O)N[C@@H](Cc1ccccc1)C(N)=O`, for which the inhibition in experiment [1] was determined as 82%; in experiment [2], 37%; in experiment [3] it was 90%; in experiment [4], 40%.

Take `N=C(N)NCCC[C@H](NC(=O)c1ccc(Cl)cc1Cl)C(=O)N[C@@H](Cc1ccccc1)C(N)=O`: the inhibition in experiment [1] was 38%; in experiment [2] it was 2%; in experiment [3] it was 75%; in experiment [4], 0%.

`CC(C)(C)c1ccc(C(=O)N[C@@H](CCCNC(=N)N)C(=O)N[C@@H](Cc2ccccc2)C(N)=O)cc1`: the inhibition is 31% in experiment [1], 14% in experiment [2], 94% in experiment [3] and 43% in experiment [4].

Take `N=C(N)NCCC[C@H](NC(=O)C12CC3CC(CC(C3)C1)C2)C(=O)N[C@@H](Cc1ccccc1)C(N)=O`: the inhibition in experiment [1] was 85%; in experiment [2], 40%; in experiment [3] it was 97%; in experiment [4] it was 60%.

As to `N=C(N)NCCC[C@@H](NC(=O)c1ccc(-c2ccccc2)cc1)C(=O)N[C@@H](Cc1ccccc1)C(N)=O`, the inhibition in experiment [1] was determined as 57%; in experiment [2], 43%; in experiment [3], 92%; in experiment [4], 81%.

`COc1cccc(CC(=O)N[C@@H](CCCNC(=N)N)C(=O)N[C@@H](Cc2ccccc2)C(N)=O)c1`: the inhibition in experiment [1] worked out at 50%; in experiment [2], 19%; in experiment [3], 89%; in experiment [4], 42%.

Turning to `N=C(N)NCCC[C@@H](NC(=O)c1ccc(-c2ccccc2)cc1)C(=O)N[C@H](Cc1ccccc1)C(N)=O`, the inhibition in experiment [1] is 50%; in experiment [2], 6%; in experiment [3], 83%; in experiment [4] it was 40%.

Turning to `N=C(N)NCCC[C@H](NC(=O)CCN1c2ccccc2Sc2ccccc21)C(=O)N[C@@H](Cc1ccccc1)C(N)=O`, the inhibition in experiment [1] amounted to 59%; in experiment [2], 31%; in experiment [3], 100%; in experiment [4] it was 100%.

For `N=C(N)NCCC[C@H](NC(=O)c1ccc2ccccc2c1)C(=O)N[C@@H](Cc1ccccc1)C(N)=O`, the inhibition in experiment [1] was found to be 56%; in experiment [2] it was 23%; in experiment [3] it was 81%; in experiment [4], 27%.

`N=C(N)NCCC[C@H](NC(=O)c1ccc(C(=O)c2ccccc2)cc1)C(=O)N[C@@H](Cc1ccccc1)C(N)=O`: the inhibition in experiment [1] came out at 43%; in experiment [2] it was 4%; in experiment [3], 68%; in experiment [4], 14%.

As for `N=C(N)NCCC[C@H](NC(=O)c1ccc2ccccc2n1)C(=O)N[C@@H](Cc1ccccc1)C(N)=O`, the inhibition in experiment [1] worked out at 82%; in experiment [2] it was 28%; in experiment [3], 100%; in experiment [4], 34%.

Regarding `COc1ccc(/C=C/C(=O)N[C@@H](CCCNC(=N)N)C(=O)N[C@@H](Cc2ccccc2)C(N)=O)cc1OC`, the inhibition in experiment [1] was 34%; in experiment [2], 4%; in experiment [3] it was 77%; in experiment [4], 19%.

For the compound `N=C(N)NCCC[C@@H](NC(=O)Cc1ccccc1)C(=O)N[C@@H](Cc1ccccc1)C(N)=O`, the inhibition in experiment [1] amounted to 40%; in experiment [2], 30%; in experiment [3], 87%; in experiment [4], 68%.

As for `N=C(N)NCCC[C@H](NC(=O)Cc1ccccc1Cl)C(=O)N[C@@H](Cc1ccccc1)C(N)=O`, the inhibition in experiment [1] is 60%; in experiment [2] it was 16%; in experiment [3], 83%; in experiment [4], 47%.

`N=C(N)NCCC[C@H](NC(=O)Cc1ccc(O)cc1)C(=O)N[C@@H](Cc1ccccc1)C(N)=O`: the inhibition is 26% in experiment [1], 0% in experiment [2], 76% in experiment [3] and 32% in experiment [4].

Turning to `N=C(N)NCCC[C@H](NC(=O)c1[nH]c2ccccc2c1-c1ccccc1)C(=O)N[C@@H](Cc1ccccc1)C(N)=O`, the inhibition in experiment [1] stood at 27%; in experiment [2] it was 14%; in experiment [3], 92%; in experiment [4] it was 39%.

As for `COc1ccc(C(=O)N[C@@H](CCCNC(=N)N)C(=O)N[C@@H](Cc2ccccc2)C(N)=O)cc1OC`, the inhibition amounted to 27% in experiment [1], 0% in experiment [2], 65% in experiment [3] and 13% in experiment [4].

Take `N=C(N)NCCC[C@H](NC(=O)c1cnc2ccccc2c1)C(=O)N[C@@H](Cc1ccccc1)C(N)=O`: the inhibition in experiment [1] stood at 47%; in experiment [2], 24%; in experiment [3], 79%; in experiment [4], 22%.

In the case of `N=C(N)NCCC[C@H](NC(=O)/C=C/c1ccccc1)C(=O)N[C@@H](Cc1ccccc1)C(N)=O`, the inhibition in experiment [1] amounted to 46%; in experiment [2] it was 24%; in experiment [3] it was 58%; in experiment [4], 3%.

Consider `N=C(N)NCCC[C@@H](NC(=O)c1cccc(-c2ccccc2)c1)C(=O)N[C@H](Cc1ccccc1)C(N)=O`, for which the inhibition was 38% in experiment [1], 6% in experiment [2], 88% in experiment [3] and 63% in experiment [4].

Consider `N=C(N)NCCC[C@@H](NC(=O)c1cccc(-c2ccccc2)c1)C(=O)N[C@@H](Cc1ccccc1)C(N)=O`, for which the inhibition worked out at 72% in experiment [1], 65% in experiment [2], 99% in experiment [3] and 85% in experiment [4].

Take `CC(C)(C)C(=O)N[C@@H](CCCNC(=N)N)C(=O)N[C@@H](Cc1ccccc1)C(N)=O`: the inhibition in experiment [1] is 48%; in experiment [2] it was 38%; in experiment [3], 91%; in experiment [4], 35%.

As for `N=C(N)NCCC[C@H](NC(=O)c1ccc2nc[nH]c2c1)C(=O)N[C@@H](Cc1ccccc1)C(N)=O`, the inhibition in experiment [1] was 27%; in experiment [2], 8%; in experiment [3], 28%; in experiment [4] it was 9%.
